Data as given in the supplement of paper PMC8612539.
Values after ≈ are worked out from the molar mass of the structure shown.

Test system: Pasteurella multocida
Experiment: minimum inhibitory concentration (MIC)
Experimental: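 Broth microdilution MIC (Sensititre BOPO7F bovine plate, CLSI methods) of 19 antimicrobials against field isolates of P. multocida, M. haemolytica, H. somni (deep nasopharyngeal swabs) and E. coli, Enterococcus spp. (rectal swabs) from weaned dairy heifers. Incubation 16-24 h at 35 C. MIC is the lowest concentration preventing visible growth. Values with <= or > lie at the tested range limits. Trimethoprim-sulfamethoxazole is given as the trimethoprim component of a 1:19 mixture.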

CC1(C)S[C@@H]2[C@H](NC(=O)Cc3ccccc3)C(=O)N2[C@H]1C(=O)O [Penicillin]
Conditions	minimum inhibitory concentration [µg/mL]
isolate (source animal id): 10	0.25 (≈ 0.748 µM)
isolate (source animal id): 11	0.25 (≈ 0.748 µM)
isolate (source animal id): 12	0.25 (≈ 0.748 µM)
isolate (source animal id): 19	0.25 (≈ 0.748 µM)
isolate (source animal id): 23	≤ 0.12
isolate (source animal id): 26	0.25 (≈ 0.748 µM)
isolate (source animal id): 98	≤ 0.12
isolate (source animal id): 104	≤ 0.12
isolate (source animal id): 115	≤ 0.12
isolate (source animal id): 117	0.25 (≈ 0.748 µM)
isolate (source animal id): 118	≤ 0.12
isolate (source animal id): 121	0.25 (≈ 0.748 µM)
isolate (source animal id): 124	0.25 (≈ 0.748 µM)
isolate (source animal id): 125	0.25 (≈ 0.748 µM)
isolate (source animal id): 128	≤ 0.12
isolate (source animal id): 131	0.25 (≈ 0.748 µM)
isolate (source animal id): 135	0.25 (≈ 0.748 µM)
isolate (source animal id): 136	0.25 (≈ 0.748 µM)
isolate (source animal id): 140	0.25 (≈ 0.748 µM)
isolate (source animal id): 144	≤ 0.12
isolate (source animal id): 146	≤ 0.12
isolate (source animal id): 150	≤ 0.12
isolate (source animal id): 151	≤ 0.12
isolate (source animal id): 153	≤ 0.12
isolate (source animal id): 155	0.25 (≈ 0.748 µM)
isolate (source animal id): 157	≤ 0.12
isolate (source animal id): 160	≤ 0.12
isolate (source animal id): 164	≤ 0.12
isolate (source animal id): 165	≤ 0.12
isolate (source animal id): 167	≤ 0.12
isolate (source animal id): 168	0.25 (≈ 0.748 µM)
isolate (source animal id): 169	≤ 0.12
isolate (source animal id): 170	> 8
isolate (source animal id): 171	≤ 0.12
isolate (source animal id): 172	≤ 0.12
isolate (source animal id): 173	0.25 (≈ 0.748 µM)
isolate (source animal id): 174	≤ 0.12
isolate (source animal id): 175	≤ 0.12
isolate (source animal id): 176	≤ 0.12
isolate (source animal id): 177	≤ 0.12
isolate (source animal id): 178	≤ 0.12
isolate (source animal id): 179	≤ 0.12
isolate (source animal id): 182	≤ 0.12
isolate (source animal id): 192	≤ 0.12
isolate (source animal id): 193	≤ 0.12
isolate (source animal id): 195	≤ 0.12
isolate (source animal id): 196	≤ 0.12
isolate (source animal id): 197	≤ 0.12
isolate (source animal id): 198	0.25 (≈ 0.748 µM)
isolate (source animal id): 199	≤ 0.12
isolate (source animal id): 200	≤ 0.12
isolate (source animal id): 201	≤ 0.12
isolate (source animal id): 203	≤ 0.12
isolate (source animal id): 204	≤ 0.12
isolate (source animal id): 205	0.25 (≈ 0.748 µM)
isolate (source animal id): 206	≤ 0.12
isolate (source animal id): 207	≤ 0.12
isolate (source animal id): 208	≤ 0.12
isolate (source animal id): 209	≤ 0.12
isolate (source animal id): 210	0.25 (≈ 0.748 µM)
isolate (source animal id): 213	≤ 0.12
isolate (source animal id): 216	≤ 0.12
isolate (source animal id): 223	0.25 (≈ 0.748 µM)
isolate (source animal id): 227	≤ 0.12
isolate (source animal id): 229	≤ 0.12
isolate (source animal id): 233	≤ 0.12
isolate (source animal id): 234	≤ 0.12
isolate (source animal id): 237	≤ 0.12
isolate (source animal id): 241	≤ 0.12
isolate (source animal id): 245	≤ 0.12
isolate (source animal id): 247	≤ 0.12
isolate (source animal id): 250	≤ 0.12
isolate (source animal id): 254	0.25 (≈ 0.748 µM)
isolate (source animal id): 255	≤ 0.12
isolate (source animal id): 258	≤ 0.12
isolate (source animal id): 261	≤ 0.12
isolate (source animal id): 262	≤ 0.12
isolate (source animal id): 269	≤ 0.12
isolate (source animal id): 270	≤ 0.12
isolate (source animal id): 274	≤ 0.12
isolate (source animal id): 275	0.25 (≈ 0.748 µM)
isolate (source animal id): 276	0.25 (≈ 0.748 µM)
isolate (source animal id): 277	≤ 0.12
isolate (source animal id): 278	≤ 0.12
isolate (source animal id): 279	0.25 (≈ 0.748 µM)
isolate (source animal id): 280	0.25 (≈ 0.748 µM)
isolate (source animal id): 284	0.25 (≈ 0.748 µM)
isolate (source animal id): 285	0.25 (≈ 0.748 µM)
isolate (source animal id): 287	0.25 (≈ 0.748 µM)
isolate (source animal id): 290	0.25 (≈ 0.748 µM)
isolate (source animal id): 294	0.25 (≈ 0.748 µM)
isolate (source animal id): 295	0.25 (≈ 0.748 µM)
isolate (source animal id): 296	≤ 0.12
isolate (source animal id): 307	0.25 (≈ 0.748 µM)
isolate (source animal id): 310	0.25 (≈ 0.748 µM)
isolate (source animal id): 311	0.25 (≈ 0.748 µM)
isolate (source animal id): 312	≤ 0.12
isolate (source animal id): 313	0.25 (≈ 0.748 µM)
isolate (source animal id): 315	0.25 (≈ 0.748 µM)
isolate (source animal id): 316	0.25 (≈ 0.748 µM)
